Measured values: article PMC7227612 (Clinical cancer research : an official journal of the …, 2009)
Marks after values point to notes of the source that are not given here.

Legend:
[1] = Steady-state plasma pharmacokinetics, group A; format: in vivo, human; conditions: for Cav,ss: geometric mean (%CV); for Cmax / Tmax: human, plasma, oral
[2] = Steady-state plasma pharmacokinetics, group B; format: in vivo, human; conditions: for Cmax / Tmax: human, plasma, oral; for Cmax: Cmax,ss
[3] = Toxicity and dose limiting toxicity; format: in vivo
[4] = system: recurrent malignant glioma; experiment: Tumor response; format: in vivo, human
[5] = system: phosphorylated GSK3β (pGSK3β); experiment: pGSK3β in patient peripheral blood mononuclear cells; format: in vivo, human
GSK3β = experiment: Inhibition of GSK3β phosphorylation and activity in glioma cells in vitro; format: cell-based; conditions: Supplementary Fig. S1, concentration dependent
glioma cells = experiment: Cytotoxic activity against glioma cells in vitro; format: cell-based; conditions: Supplementary Fig. S1, concentration dependent
[6] = Group B, 500 mg twice daily, Patient 2
[7] = Group B, 1,000 mg daily, Patient 1
[8] = Group B, 1,000 mg daily, Patient 2
[9] = 500 mg, Group B, 500 mg twice daily, Patient 2
[10] = 1000 mg daily, Group B, 1,000 mg daily, Patient 1
[11] = 1000 mg daily, Group B, 1,000 mg daily, Patient 2

## Cn1cc(C2=C(c3cn(C4CCN(Cc5ccccn5)CC4)c4ccccc34)C(=O)NC2=O)c2ccccc21 [Enzastaurin]
[1]; DL 1, 800 mg daily, n = 12
  Cav,ss: 1,130 (89) nmol/L
[1]; DL-1, 250 mg twice daily, n = 3
  Cav,ss: 1,040 (124) nmol/L
[1]; DL-1, 500 mg daily, n = 5
  Cav,ss: 472 (109) nmol/L
[1]; 250 mg
  Cmax: 1390 nM
  Tmax: 6.03 h
[1]; 400 mg
  Cmax: 2710 nM
  Tmax: 4.03 h
[1]; 500 mg
  Cmax: 979 nM
  Tmax: 2.08 h
[1]; 800 mg
  Tmax: 4 h
[2]; [6]
  CL/F: 27 L/h
  Cav,ss: 3,050 nmol/L
[2]; [7]
  CL/F: 60 L/h
  Cav,ss: 1,340 nmol/L
[2]; [8]
  CL/F: 60 L/h
  Cav,ss: 1,350 nmol/L
[2]; [9]
  Cmax: 4.09 µM
  Tmax: 4 h
[2]; [10]
  Cmax: 3.01 µM
  Tmax: 4 h
[2]; [11]
  Cmax: 2.73 µM
  Tmax: 2 h
[3]; human, in vivo
  Dose-limiting toxicities: thrombocytopenia and prolonged QTc
  Elevated ALT, Grade 1-2: 5 (23%)
  Elevated ALT, Grade 3-4: 1
  Elevated AST, Grade 1-2: 9 (41%)
  Elevated AST, Grade 3-4: 0
  Hematuria, Grade 1-2: 1
  Hematuria, Grade 3-4: 0
  Hypermagnesemia, Grade 1-2: 1
  Hypermagnesemia, Grade 3-4: 0
  Intracranial hemorrhage, Grade 1-2: 0
  Intracranial hemorrhage, Grade 3-4: 0
  Nausea, Grade 1-2: 1
  Nausea, Grade 3-4: 0
  Proteinuria, Grade 1-2: 1
  Proteinuria, Grade 3-4: 0
  QTc prolongation, Grade 1-2: 5 (23%)
  QTc prolongation, Grade 3-4: 2 (9%) ^*
  Relationship between QTcB changes from baseline and plasma concentrations: no significant relationship
  Thrombocytopenia, Grade 1-2: 6 (27%)
  Thrombocytopenia, Grade 3-4: 5 (23%)
[3]; human, in vivo, 6 wk
  Patients with dose limiting grade 3 thrombocytopenia: 2
[3]; number of patients, N = 22
  Elevated ALT, Grade 5: 0
  Elevated AST, Grade 5: 0
  Hematuria, Grade 5: 0
  Hypermagnesemia, Grade 5: 0
  Nausea, Grade 5: 0
  Proteinuria, Grade 5: 0
  QTc prolongation, Grade 5: 0
  Thrombocytopenia, Grade 5: 0
[3]; number of patients, N = 22, in the setting of grade 3 thrombocytopenia
  Intracranial hemorrhage, Grade 5: 1 ^†
[4]; 19 patients evaluable
  Complete response (patients): 1
  Partial response (patients): 1
[4]; 19 patients evaluable for radiographic response
  Objective responses: 11%
[4]; entire study group
  Median overall survival: 5.7 months
  Median progression-free survival: 1.4 months
[4]; one patient, Fig. 2
  Duration complete response maintained on therapy: > 3 y
[5]; five patients who achieved disease control
  pGSK3β levels at steady state vs baseline: decreased from baseline
[5]; one patient with progressive disease, after the first 3 weeks of therapy
  pGSK3β at steady state vs baseline: increased
[5]; two patients, Fig. 3B
  Kinetics of pGSK3β in peripheral blood mononuclear cells after administration: decrease in a time dependent manner
GSK3β
  Phosphorylation and activity of GSK3β: inhibits
Glioma cells
  Cytotoxicity: direct cytotoxic activity
